What was measured:
[1] = target: prolyl endopeptidase (Elizabethkingia meningoseptica, UniProt P27028); assay: Anti-prolyl endopeptidase activity (inhibition of digestion of Z-glycyl-prolyl-β-naphthylamide); type: biochemical; settings: amount for 50% inhibition; 0.0025M Z-glycyl-prolyl-β-naphthylamide (0.25 ml), pH 7.0, 35° C., 10 minutes, absorbance at 410 nm
Protocol: The method of Yoshimoto and Tsuru [T. Yoshimoto and D. Tsuru, Agric. Biol. Chem., 42, 2417 (1978)] was used to measure the anti-prolyl endopeptidase activities of several compounds of the present invention. A mixture of 0.0025M Z-glycyl-prolyl-β-naphthylamide (0.25 ml), 0.1M phosphate buffer (pH, 7.0; 0.99 ml) and a solution of a particular anti-prolyl endopeptidase compound (0.01 ml) was incubated in a test tube at 37° C. for 3 minutes. Thereafter, 0.1 ml of a solution of prolyl endopeptidase (0.2 U/ml) was added and the mixture was incubated at 35° C. for 10 minutes. After the reaction, 2.0 ml of Triton X-100 in 1M acetate buffer (pH, 4.0) was added to the reaction mixture so that the final concentration of the surfactant might be 10%. The mixture was left at room temperature for 15 minutes and the absorbance (a) at 410 nm was measured.
A sample of a blind test was prepared by using the buffer instead of the anti-prolyl endopeptidase compound and its absorbance (b) was also measured. The percentage of inhibition against prolyl endopeptidase was calculated by the formula: […]
and the amount of a specific compound need to achieve 50% inhibition (IC50) was determined.

[2] = test system: DDY strain male mice; assay: Memory fixation test in mice (passive avoidance learning); type: in vivo; settings: 5 mice, assessed 24 hours after learning, physiological saline control 47 sec.
Protocol: The measurement was conducted in accordance with the method described in Experientia 40, 506 (1984) with a slight modification made by the inventors. Several of the compounds of the invention were checked for their ability to enhance long-term memory fixation in the passive avoidance learning method using an apparatus which has an electrifiable grid floor and a refuge platform on one end of the floor. […] One hour after the administration, electric shocks were applied to the mice in a black box so that they would acquire passive avoidance learning.
The results of the test were assessed 24 hours after the learning in terms of the memory fixation acquired in the passive avoidance learning by measuring the residence time (latency) during which the mice stayed on the platform. The results between the test groups which received the test compound and the control group which received physiological saline in place of the test compound were compared.

Sequence of prolyl endopeptidase (P27028 21-705): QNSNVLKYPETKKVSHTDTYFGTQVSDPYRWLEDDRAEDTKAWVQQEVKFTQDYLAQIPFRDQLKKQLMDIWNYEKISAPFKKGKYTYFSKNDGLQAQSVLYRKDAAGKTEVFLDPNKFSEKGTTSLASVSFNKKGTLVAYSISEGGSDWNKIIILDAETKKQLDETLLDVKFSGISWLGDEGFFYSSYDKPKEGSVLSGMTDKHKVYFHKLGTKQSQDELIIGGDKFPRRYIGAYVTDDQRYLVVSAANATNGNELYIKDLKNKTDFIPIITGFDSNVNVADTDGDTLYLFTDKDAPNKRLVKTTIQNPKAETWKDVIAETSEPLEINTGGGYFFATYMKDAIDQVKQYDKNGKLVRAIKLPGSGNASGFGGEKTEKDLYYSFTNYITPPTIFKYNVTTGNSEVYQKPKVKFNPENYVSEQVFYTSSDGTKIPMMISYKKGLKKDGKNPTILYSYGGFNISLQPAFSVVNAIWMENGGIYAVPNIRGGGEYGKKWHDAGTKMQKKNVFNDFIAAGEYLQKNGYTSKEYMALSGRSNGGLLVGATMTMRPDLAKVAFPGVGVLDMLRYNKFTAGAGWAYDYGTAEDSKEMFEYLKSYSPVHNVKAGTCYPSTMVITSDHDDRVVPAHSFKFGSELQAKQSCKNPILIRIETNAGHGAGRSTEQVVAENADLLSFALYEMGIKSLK

| SMILES | IC50 [1] | Latency ([2]; 1.0 mg/kg per os) | Latency ([2]; 3.0 mg/kg per os) | Latency ([2]; 0.3 mg/kg per os) |
| --- | --- | --- | --- | --- |
| O=C([C@@H]1C[C@@H](O)CN1C(=O)CCCc1ccccc1)N1CCCC1 [SUAM 14432, N-[N-(4-phenylbutanoyl)-trans-4-hydroxy-L-prolyl]pyrrolidine] | 0.07 μg/test tube | 76 s | 153 s |  |
| COc1ccc(O[C@H]2C[C@@H](C(=O)N3CCCC3)N(C(=O)CCCc3ccccc3)C2)cc1 [SUAM 14441, N-[N-(4-phenylbutanoyl)-cis-4-(4-methoxyphenoxy)-L-prolyl]pyrrolidine] | 0.01 μg/test tube | 101 s |  |  |
| COc1ccccc1O[C@H]1C[C@@H](C(=O)N2CCCC2)N(C(=O)CCCc2ccccc2)C1 [SUAM 14467, N-[N-(4-phenylbutanoyl)-cis-4-(2-methoxyphenoxy)-L-prolyl]pyrrolidine] | 0.008 μg/test tube |  |  |  |
| COc1cccc(O[C@H]2C[C@@H](C(=O)N3CCCC3)N(C(=O)CCCc3ccccc3)C2)c1 [SUAM 14468, N-[N-(4-phenylbutanoyl)-cis-4-(3-methoxyphenoxy)-L-prolyl]pyrrolidine] | 0.03 μg/test tube |  |  |  |
| COc1ccc(O[C@H]2C[C@@H](C(=O)N3CCCC3)N(C(=O)OCc3ccccc3)C2)cc1 [SUAM 14491, N-[N-benzyloxycarbonyl-cis-4-(4-methoxyphenoxy)-L-prolyl]pyrrolidine] | 0.04 μg/test tube |  |  |  |
| O=C([C@@H]1C[C@H](O)CN1C(=O)CCCc1ccccc1)N1CCCC1 [SUAM 14496, N-[N-(4-phenylbutanoyl)-cis-4-hydroxy-L-prolyl]pyrrolidine] | 0.10 μg/test tube | 138 s | 135 s | 147 s |
| COc1ccc(C(=O)O[C@@H]2C[C@@H](C(=O)N3CCCC3)N(C(=O)CCCc3ccccc3)C2)cc1 [SUAM 14497, N-[N-4-phenylbutanoyl)-trans-4-(4-methoxybenzoyloxy-L-prolyl]pyrrolidine] | 0.15 μg/test tube |  |  |  |
| O=C(O[C@@H]1C[C@@H](C(=O)N2CCCC2)N(C(=O)CCCc2ccccc2)C1)c1ccccc1 [SUAM 14498] | 0.30 μg/test tube |  |  |  |
| O=C(O[C@@H]1C[C@@H](C(=O)N2CCCC2)N(C(=O)CCCc2ccccc2)C1)c1ccc(Cl)cc1 [SUAM 14499, N-[N-(4-phenylbutanoyl)-trans-4-(4-chlorobenzoyloxy)-L-prolyl]pyrrolidine] | 0.20 μg/test tube |  |  |  |
| COc1ccc(C(=O)O[C@H]2C[C@@H](C(=O)N3CCCC3)N(C(=O)CCCc3ccccc3)C2)cc1 [SUAM 14501] | 0.04 μg/test tube |  |  |  |
| O=C(O[C@H]1C[C@@H](C(=O)N2CCCC2)N(C(=O)CCCc2ccccc2)C1)c1ccccc1 [SUAM 14502, N-[N-(4-phenylbutanoyl)-cis-4-benzoyloxy-L-prolyl]pyrrolidine] | 0.06 μg/test tube |  |  |  |
| O=C(O[C@H]1C[C@@H](C(=O)N2CCCC2)N(C(=O)CCCc2ccccc2)C1)c1ccc(Cl)cc1 [SUAM 14503, N-[N-(4-phenylbutanoyl)-cis-4-(4-chlorobenzoyloxy)-L-prolyl]pyrrolidine] | 0.06 μg/test tube |  |  |  |
| O=C([C@@H]1C[C@H](Oc2ccccc2)CN1C(=O)CCCc1ccccc1)N1CCCC1 [SUAM 14504, N-[N-(4-phenylbutanoyl)-cis-4-phenoxy-L-prolyl]pyrrolidine] | 0.02 μg/test tube |  |  |  |
| CC(=O)O[C@@H]1C[C@@H](C(=O)N2CCCC2)N(C(=O)CCCc2ccccc2)C1 [SUAM 14506, N-[N-(4-phenylbutanoyl)-trans-4-acetoxy-L-prolyl]pyrrolidine] | 0.03 μg/test tube |  | 64 s |  |
| CC(=O)O[C@H]1C[C@@H](C(=O)N2CCCC2)N(C(=O)CCCc2ccccc2)C1 [SUAM 14507, N-[N-(4-phenylbutanoyl)-cis-4-acetoxy-L-prolyl]pyrrolidine] | 0.10 μg/test tube |  | 53 s |  |
| O=C([C@@H]1C[C@H](Oc2ccc(Cl)cc2)CN1C(=O)CCCc1ccccc1)N1CCCC1 [SUAM 14508, N-[N-(4-phenylbutanoyl)-cis-4-(4-chlorophenoxy)-L-prolyl]pyrrolidine] | 0.04 μg/test tube |  |  |  |
| Cc1ccc(O[C@H]2C[C@@H](C(=O)N3CCCC3)N(C(=O)CCCc3ccccc3)C2)cc1 [SUAM 14509, N-[N-(4-phenylbutanoyl)-cis-4-(4-methylphenoxy)-L-prolyl]pyrrolidine] | 0.03 μg/test tube |  | 95 s |  |

— US4810721A, “Pyrrolidineamide derivative having anti-prolyl endopeptidase” (Suntory Limited, priority 1986, dated 1989)
